# Measurements reported in patent US7445641B1, “Biomaterials modified with superoxide dismutase mimics” (priority 1999, dated 2008).
# Columns and labels:
# [1] = Stopped-flow kinetic analysis of superoxide dismutation; type: biochemical; design: kcat pH 8.1 / kcat pH 7.4: unit not given here
# Excerpt: Stopped-flow kinetic analysis is an accurate and direct method for quantitatively monitoring the decay rates of superoxide in water.
# For the attainment of consistent and accurate measurements all reagents were biologically clean and metal-free. To achieve this, all buffers (Calbiochem) were biological grade, metal-free buffers and were handled with utensils which had been washed first with 0.1N HCl, followed by purified water, followed by a rinse in a 10^−4 M EDTA bath at pH 8, followed by a rinse with purified water and dried at 65° C. for several hours. Dry DMSO solutions of potassium superoxide (Aldrich) were prepared under a dry, inert atmosphere of argon in a Vacuum Atmospheres dry glovebox using dried glassware. The DMSO solutions were prepared immediately before every stopped-flow experiment. A mortar and pestle were used to grind the yellow solid potassium superoxide (~100 mg). The powder was then ground with a few drops of DMSO and the slurry transferred to a flask containing an additional 25 ml of DMSO. The resultant slurry was stirred for ½ h and then filtered. This procedure gave reproducibly ~2 mM concentrations of superoxide in DMSO. These solutions were transferred to a glovebag under nitrogen in sealed vials prior to loading the syringe under nitrogen. It should be noted that the DMSO/superoxide solutions are extremely sensitive to water, heat, air, and extraneous metals. A fresh, pure solution has a very slight yellowish tint.
# Water for buffer solutions was delivered from an in-house deionized water system to a Barnstead Nanopure Ultrapure Series 550 water system and then double distilled, first from alkaline potassium permanganate and then from a dilute EDTA solution. For example, a solution containing 1.0 g of potassium permanganate, 2 liters of water and additional sodium hydroxide necessary to bring the pH to 9.0 were added to a 2-liter flask fitted with a solvent distillation head. This distillation will oxidize any trace of organic compounds in the water. The final distillation was carried out under nitrogen in a 2.5-liter flask containing 1500 ml of water from the first still and 1.0×10^−6 M EDTA. This step will remove remaining trace metals from the ultrapure water. To prevent EDTA mist from volatilizing over the reflux arm to the still head, the 40-cm vertical arm was packed with glass beads and wrapped with insulation. This system produces deoxygenated water that can be measured to have a conductivity of less than 2.0 nanomhos/cm^2.
# The stopped-flow spectrometer system was designed and manufactured by Kinetic Instruments Inc. (Ann Arbor, Mich.) and was interfaced to a MAC IICX personal computer. The software for the stopped-flow analysis was provided by Kinetics Instrument Inc. and was written in QuickBasic with MacAdios drivers. Typical injector volumes (0.10 ml of buffer and 0.006 ml of DMSO) were calibrated so that a large excess of water over the DMSO solution were mixed together. The actual ratio was approximately 19/1 so that the initial concentration of superoxide in the aqueous solution was in the range 60-120 μM. […]
# [2] = polypropylene admixed 2% by weight, melted at 250° C., extracted with pure water
# Experimental: 0.105 g of Compound 38 was added to 4.9 g of cryoground polypropylene. The mixture was melted at 250° C. and extruded into a strand and a fiber. In this manner, a polypropylene modified with a non-proteinaceous catalyst, 2% by weight, was made. The product strand was cryoground and extracted with pure water.
Molecule,kcat pH 7.4 [1],kcat pH 8.1 [1],"activity of compound extracted from the strand ([1]; extracted with pure water from polypropylene strand, confirmed by stopped-flow kinetic analysis and HPLC-UV)",elution of the admixed compound from the cryoground polymer [2] [%]
N#C[S][Mn]1234([S]C#N)[N]5CC[N]1C1CCCCC1[N]2CC[N]3C1CCCC[C@H]1[N]4CC5 (some centres unmarked) [Compound 22],11.40,5.03,,
NCC[C@H]1C[N]2[C@@H](CCN)C[N]3[C@@H]4CCCC[C@H]4[N]4CC[N]5CC[N]1[Mn]5243([Cl])[Cl] [Compound 16],2.48,1.97,,
[Cl][Mn]1234([Cl])[N]5CC[N]1C1CCCCC1[N]2CC[N]3C1CCCCC1[N]4CC5 (centres unmarked) [Compound 17],12.60,4.09,,
CC(C)(C)SC[C@H]1C[N]2[C@@H]3CCCC[C@H]3[N]3C[C@H](CSC(C)(C)C)[N]4CC[N]5CC[N]1[Mn]5423([Cl])[Cl] [Compound 21],2.93,1.29,,
[Cl-].[Cl-].[NH3+]CCCC[C@@H]1C[N]2[C@@H](CCCC[NH3+])C[N]3[C@@H]4CCCC[C@H]4[N]4CC[N]5CC[N]1[Mn]5243([Cl])[Cl] [Compound 12],10.20,5.39,,
C=CCC1C[N]2CC[N]3CC[N]4CC[N]5CC[N]1[Mn]4352([Cl])[Cl] (centres unmarked) [Compound 13],,1.63,,
OC[C@@H]1C[N]2[C@@H]3CCCC[C@H]3[N]3CC[N]4C5CCCCC5[N]5CC[N]1[Mn]5432([Cl])[Cl] (some centres unmarked) [Compound 26],10.12,3.47,,
CC(=O)OC[C@@H]1C[N]2CC[N]3[C@@H](COC(C)=O)C[N]4[C@H](COC(C)=O)C[N]5[C@@H](COC(C)=O)C[N]1[Mn]2345([Cl])[Cl] [Compound 33],7.27,4.08,,
O=C(OC[C@H]1C[N]2[C@@H](COC(=O)c3ccccc3)C[N]3[C@@H](COC(=O)c4ccccc4)C[N]4[C@@H](COC(=O)c5ccccc5)C[N]5CC[N]1[Mn]5423([Cl])[Cl])c1ccccc1 [Compound 36],0.63,0.49,,
C[C@@H]1C[N]2[C@@H](CCCN)C[N]3[C@@H]4CCCC[C@H]4[N]4CC[N]5[C@@H](C)C[N]1[Mn]2435([Cl])[Cl] [Compound 31],2.97,2.91,,
FC(F)(F)CC1C[N]2CC[N]3CC[N]4CC[N]5CC[N]1[Mn]4352([Cl])[Cl] (centres unmarked) [Compound 9],2.77,1.68,,
NCCC[C@H]1C[N]2[C@H]3CCCC[C@H]3[N]3CC[N]4[C@H]5CCCC[C@H]5[N]5CC[N]1[Mn]5342([Cl])[Cl] [Compound 14],7.58,3.84,,
COC(=O)C1=C(C(=O)OC)C2OC1C=C2COC[C@H]1C[N]2[C@H](C)C[N]3[C@@H](C)C[N]4CC[N]5[C@H](C)C[N]1[Mn]4523([Cl])[Cl] (some centres unmarked) [Compound 25],4.04,2.34,,
CCC(=O)OCC1C[N]2CC[N]3[C@@H](COC(=O)CC)C[N]4[C@@H](COC(=O)CC)C[N]5[C@@H](COC(=O)CC)C[N]1[Mn]2354([Cl])[Cl] (some centres unmarked) [Compound 34],2.70,2.78,,
CCC(=O)OC[C@H]1C[N]2[C@@H]3CCCC[C@H]3[N]3CC[N]4C5CCCCC5[N]5CC[N]1[Mn]5432([Cl])[Cl] (some centres unmarked) [Compound 39],3.89,2.32,,
C[C@H]1C[N]2[C@@H](C)C[N]3[C@@H](CCCNC(=O)CC(CC(=O)O)NC(=O)CNC(=O)c4cccc(NC(=N)N)c4)C[N]4[C@H]5CCCC[C@H]5[N]5CC[N]1[Mn]3524([Cl])[Cl] (some centres unmarked) [Compound 35],4.38,2.87,,
[Cl][Mn]1234([Cl])[N]5CC[N]1CC[N]2CC[N]3CC[N]4CC5 [Compound 1],4.13,2.24,,
NCCC[C@H]1C[N]2[C@@H]3CCCC[C@H]3[N]3CC[N]4CC[N]5CC[N]1[Mn]5432([Cl])[Cl] [Compound 11],4.79,2.85,,

Molecule,kcat pH 7.4 [1],kcat pH 8.1 [1],"activity of compound extracted from the strand ([1]; extracted with pure water from polypropylene strand, confirmed by stopped-flow kinetic analysis and HPLC-UV)",elution of the admixed compound from the cryoground polymer [2] [%]
C#CCC1C[N]2CC[N]3CC[N]4CC[N]5CC[N]1[Mn]4352([Cl])[Cl] (centres unmarked) [Compound 4],,1.75,,
[Cl-].[Cl][Fe]1234([Cl])[N]5CC[N]1C1CCCCC1[N]2CC[N]3C1CCCCC1[N]4CC5 (centres unmarked) [Compound 20],3.29,0.93,,
"[Cl-].[Cl-].[Mn+2].c1cc2nc(c1)CN[C@@H]1CCCC[C@H]1NCCN[C@@H]1CCCC[C@H]1NC2 [Compound 38, Manganese (II) dichloro{(4R,9R,14R,19R)-3,10,13,20,26-pentaazatetracyclo [20.3.1.04,9.014,19]hexacosa-1(26),22(23),24-triene}]",1.64,1.19,Active,~10
Oc1ccccc1CC1C[N]2CC[N]3CC[N]4CC[N]5CC[N]1[Mn]4352([Cl])[Cl] (centres unmarked) [Compound 6],6.99,3.83,,
C[C@@H]1C[N]2[C@@H](C)C[N]3CC[N]4C[C@H](C)[N]5[C@@H](COc6ccco6)C[N]1[Mn]3425([Cl])[Cl] [Compound 24],2.55,2.55,,
C[C@@H]1C[N]2[C@@H](CCCNC(=O)CCC(=O)O)C[N]3[C@@H]4CCCC[C@H]4[N]4CC[N]5[C@@H](C)C[N]1[Mn]2435([Cl])[Cl] [Compound 32],1.74,1.43,,
"Manganese(II) dichloro(4R,9R,11R,14R,19R)-3,10,13,20,26-pentaaza-(2R,21R)-dimethyltetracyclo[20.3.1.0^4,9, 0^14,19]hexacose-1(25),22(26),23-triene [Compound 40]",90.00,11.00,,
C[C@H]1C[N]2[C@@H](CCCO)C[N]3[C@@H]4CCCC[C@H]4[N]4C[C@H](CCCO)[N]5CC[N]1[Mn]5243([Cl])[Cl] [Compound 27],4.83,2.50,,
OC[C@@H]1C[N]2CC[N]3[C@@H](CO)C[N]4[C@H](CO)C[N]5[C@@H](CO)C[N]1[Mn]2345([Cl])[Cl] [Compound 23],6.61,3.47,,
CNCCCC[C@@H]1C[N]2CC[N]3CC[N]4CC[N]5[C@@H](CCCCNC)C[N]1[Mn]3425([Cl])[Cl] [Compound 8],5.95,5.90,,
C[C@@H]1C[N]2[C@@H](C)C[N]3[C@@H]4CCCC[C@H]4[N]4C[C@H](C)[N]5CC[N]1[Mn]4352([Cl])[Cl] [Compound 19],8.48,4.08,,
[Cl][Mn]1234([Cl])[N]5CC[N]1CC[N]2CC(Cc1ccccc1)[N]3CC[N]4CC5 (centres unmarked) [Compound 2],7.21,2.57,,
C[C@@H]1C[N]2[C@@H](C)C[N]3[C@@H](C)C[N]4[C@H](C)C[N]5[C@@H](C)C[N]1[Mn]4523([Cl])[Cl] [Compound 5],3.82,3.90,,
CC(C)C(=O)OC[C@@H]1C[N]2[C@@H]3CCCC[C@H]3[N]3CC[N]4C5CCCCC5[N]5CC[N]1[Mn]5432([Cl])[Cl] (some centres unmarked) [Compound 37],3.08,,,
C[C@H](CCCNCCC[C@H]1C[N]2[C@@H]3CCCC[C@H]3[N]3CC[N]4CC[N]5CC[N]1[Mn]5432([Cl])[Cl])[C@H]1CCC2[C@@H]3CC[C@@H]4C[C@H](O)CC[C@]4(C)C3CC[C@@]21C (some centres unmarked) [Compound 15],2.41,0.77,,
OC[C@@H]1C[N]2[C@@H](CO)C[N]3[C@@H](CO)C[N]4[C@H](CO)C[N]5[C@@H](CO)C[N]1[Mn]4523([Cl])[Cl] [Compound 10],2.68,2.68,,
[Cl][Mn]1234([Cl])[N]5CC[N]1CC[N]2[C@@H](Cc1cnc[nH]1)C[N]3[C@H](Cc1cnc[nH]1)C[N]4CC5 [Compound 7],2.00,1.58,,
C[C@@H]1C[N]2[C@H]3CCCC[C@H]3[N]3CC[N]4C5CCCCC5[N]5CC[N]1[Mn]5432([Cl])[Cl] (some centres unmarked) [Compound 18],15.00,4.00,,
